# Publication PMC7053711, “A G protein–coupled receptor mediates neuropeptide-induced oocyte maturation in the jellyfish Clytia” (PLoS Biology, 2020)
# Peptide text beside a SMILES is read from it.
# Legend:
# Assay type in all cases: cell-based, Clytia hemisphaerica
# [1] = tested on: Clytia MIHR; assay: GPCR deorphanization assay, luminescence response to peptides at 1 μM (CHO-K1 cells, Gα-16, GFP-apoaequorin); settings: peptide 1E-6M, normalised to Platynereis FLamide receptor + 1 μM AKYFL-NH2, n = 3
# Description: We used a cell culture–based GPCR deorphanization assay to identify the MIH receptor from our candidate shortlist. cDNAs for each candidate were transfected into Chinese Hamster ovary K1 (CHO-K1) cells along with the promiscuous Gα protein Gα-16, and an aequorin-GFP luminescence reporter that measures Ca^2+ mobilization downstream of this heterologous Gα protein [27, 28]. We first screened the 16 candidate Clytia GPCRs against a mixture of 33 synthetic amidated peptides (including MIHs) predicted to be generated from previously identified putative Clytia neuropeptide precursors and one additional one identified from transcriptome data. Given our imperfect knowledge of pro-peptide processing in cnidarians, some of the synthetic peptides may not correspond to endogenous peptides. Only one of the 16 GPCRs was activated by this peptide mixture. This receptor responded well to all 4 synthetic Clytia MIH tetrapeptides, as well as to related Cladonema MIH peptides that can also activate Clytia oocyte maturation, but not to other Clytia peptide mixtures or poorly active MIH penta-/tripeptides. We termed this Clytia GPCR the Maturation Inducing Hormone Receptor (MIHR). The activity of individual peptides at 1 μM to stimulate the MIHR closely matched their in vivo ability to induce oocyte maturation (Fig 1B).
# Cell culture GPCR ligand response assays were performed as described. Briefly, CHO-K1 cells were cultured in Ham’s F12 Nut Mix medium (Thermo Fisher Scientific) with 10% foetal bovine serum. Cells were seeded in 96-well plates at approximately 10,000 cells/well and transfected the following day with pcDNA3.1(+) plasmids encoding each of the 16 candidate Clytia GPCRs (S2 Text), the promiscuous Gα-16 protein [65], and a reporter construct GFP-apoaequorin [66] (60 ng each) using the transfection reagent TurboFect (Thermo Fisher Scientific). After 2 days of expression, the medium was removed and replaced with Hank’s balanced salt solution (HBSS) supplemented with 1.8 mM Ca2+, 10 mM glucose, and […] coelenterazine h (Promega, Madison, WI). After incubation at 37 °C for 2 hours, cells were tested by adding synthetic peptides (GenScript) in HBSS supplemented with 1.8 mM Ca2^+ and 10 mM glucose. A list of all synthetic peptides used is provided in S2 Table. Luminescence was recorded for 45 seconds in a plate reader (BioTek Synergy Mx or Synergy H4; BioTek, Winooski, VT). Data were integrated over the 45-second measurement period and recorded as technical triplicates in each case. Data were normalized using the response of Platynereis FLamide receptor to 1 μM AKYFL-NH2 [28]. Dose–response curves were obtained using concentrations between 0.01 nM and 100 μM for each peptide. Data for dose–response curves were recorded in triplicate for each concentration and the experiment was repeated independently 3 times. Dose–response curves were fitted with a four-parameter curve using Prism 6 (GraphPad, La Jolla, CA) and were normalized to the calculated upper plateau values (100% activation).
# Supplementary file pbio.3000614.s011.xlsx: S1 Data Numerical data corresponding to Fig 1B. Raw luminescence values obtained in triplicate for each of the neuropeptide combinations tested against the MIHR in the deorphanization assay are provided. In the right-hand table, the raw luminescence values obtained in quadruple for the positive and negative controls are provided. In the lower table, means and standard errors of the mean of the luminescence values obtained for each neuropeptide combination and controls are also shown, as well as the values normalized to the positive control, which were used to prepare the graph shown in Fig 1B. MIHR, MIH receptor. (XLSX) Click here for additional data file.
# [2] = tested on: fully grown oocytes isolated from WT gonads; assay: Oocyte maturation assay, wild-type isolated oocytes (GVBD); settings: for Oocyte maturation (number) / Percentage of Oocytes maturing: 0,1uM WPRPa, wild type
# Description: (§1) Fig 4 Oocyte maturation failure in MIHR mutant medusae. Oocyte maturation assays performed using isolated gonads (A, B) or isolated oocytes (C) from MIHR mutant jellyfish compared to WT. In A and C, bar heights represent mean percentages of 3 independent experiments and error bars show standard deviations. Total gonad or oocyte numbers for each treatment are indicated in gray. (A) Spawning response of isolated gonads from WT and n5-23 female medusae. Three treatments were compared as indicated above each panel: Light: light stimulation after incubation in the dark; MIH: treatment of light-maintained gonads with 100 nM WPRPamide; cAMP: treatment of light-maintained gonads with 4 mM Br-cAMP. […] Full datasets from three independent experiments are available in S3 Data. (B) Light microscope images illustrating gonads from an equivalent experiment performed with n5-13 female MIHR mutant medusae 120 minutes after the indicated treatments. Scale bar: 500 μm. […] Full datasets from 3 independent experiments are available in S3 Data. Br-cAMP, bromoadenosine 3′,5′-cyclic monophosphate; cAMP, cyclic adenosine monophosphate; KO, knockout; MIH, maturation-inducing hormone; MIHR, MIH receptor; WT, wild-type.
# (§2) Fully grown oocytes were isolated manually from dissected gonads of wild-type and MIHR KO mutant jellyfish prepared as above. Maturation assays were performed in wells of 96-well plates or small plastic petri dishes lined with 2% agarose in MFSW. Spontaneous maturation occurs at a low frequency in control oocytes. To test MIH-induced maturation, 10 μL WPRPamide from 1 μM solution in MFSW was added to a final concentration of 100 nM. In some experiments, Br-cAMP from a 20 mM stock in H2O was used at a final concentration of 4 mM. GVBD was scored at 30 minutes, every 5 minutes, depending on experiments.
# (§3) Supplementary file pbio.3000614.s013.xlsx: S3 Data Numerical data corresponding to Fig 4A and 4C. The first tab collects all the raw data from 3 independent gonad spawning assays. Information corresponding to the Fisher exact tests is also shown. […] The means and standard deviations were used to prepare the graph in Fig 4C. Information corresponding to the Fisher exact tests is also shown. (XLSX) Click here for additional data file.
# [3] = tested on: fully grown oocytes isolated from MIHR mutant (n5-23) gonads; assay: Oocyte maturation assay, MIHR mutant isolated oocytes (GVBD); settings: for Oocyte maturation (number) / Percentage of Oocytes maturing: 0,1uM WPRPa, MIH R K.O.
# Description: as §1, §2, §3
# [4] = 100 nM WPRPamide or 4 mM Br-cAMP
# [5] = WPRPa, pooled n=47, Fisher exact test vs MIHR KO significant at p < .01
# [6] = WPRPa, pooled n=46, Fisher exact test vs WT significant at p < .01
smiles,measurement,setting,value
N=C(N)NCCC[C@H](NC(=O)[C@@H]1CCCN1C(=O)[C@@H](N)Cc1c[nH]c2ccccc12)C(=O)N1CCC[C@H]1C(N)=O [WPRPa] (H-WPRP-NH2; N-terminus assumed),"Normalised response (to positive control), mean",[1],0.381
same,Oocyte maturation (number),"[2]; replicate 1, total 13",13
same,Percentage of Oocytes maturing,"[2]; replicate 1, total 13",100.00
same,Oocyte maturation (number),"[2]; replicate 2, total 19",19
same,Percentage of Oocytes maturing,"[2]; replicate 2, total 19",100.00
same,Oocyte maturation (number),"[2]; replicate 3, total 15.00",15
same,Percentage of Oocytes maturing,"[2]; replicate 3, total 15.00",100.00
same,maturation of isolated WT oocytes,[2]; [4],triggered maturation of WT oocytes
same,"time to visible GVBD, isolated WT oocytes",[2]; [4],20 to 30 min
same,"Maturing oocytes, WT YES",[2]; [5],47
same,"Non-maturing oocytes, WT NO",[2]; [5],0
same,Oocyte maturation (number),"[3]; replicate 1, total 14",1
same,Percentage of Oocytes maturing,"[3]; replicate 1, total 14",7.14
same,Oocyte maturation (number),"[3]; replicate 2, total 11",0
same,Percentage of Oocytes maturing,"[3]; replicate 2, total 11",0.00
same,Oocyte maturation (number),"[3]; replicate 3, total 21.00",2
same,Percentage of Oocytes maturing,"[3]; replicate 3, total 21.00",9.52
same,"Maturing oocytes, MIHR KO YES",[3]; [6],3
same,"Non-maturing oocytes, MIHR KO NO",[3]; [6],43
